Each block holds one compound with its values, some of them ahead of it.
Assays:
N87 cells = assay: XTT cell proliferation assay; assay type: cell-based, human; settings: 16 h
Experimental: (§1) Cell proliferation was determined by the XTT viability assay in 96-well plates, based on the reduction of tetrazolium salt to soluble formazan compounds by living cells. Cells (10,000-15,000 cells/well) were seeded in a 96-well plate. After 16 h incubation with various concentrations of 6-MP, 6-MPR and their S-allylthio-derivatives, 50 μl of XTT/PMS mixture (50 μM PMS, 0.1% XTT in medium) was added onto the cells. After an incubation period of 3-4 h at 37° C. the absorbance of the samples was measured in an ELISA Reader at 450 nm. SDS (1%, 10 μl/well) was added to reference wells before adding the XTT/PMS solution.
(§2) The inhibitory effects of the various prodrugs on Daudi leukemia cell and on monolayer N87 cells were compared. […] XTT was added to the wells for 3 h at 37° C. Cell viability was monitored using an ELISA reader at 450 nm, as described in Materials and Methods.

Daudi cells [1] = assay: Cell death by trypan blue dye exclusion / PI; assay type: cell-based; settings: 16 h
Experimental: Cell death was monitored by trypan blue dye exclusion test or propidium iodide (PI) incorporation. Treated cells were incubated with PI (2 μg/ml) for 20 min at 37° C., washed with HBS and examined by fluorescence microscopy or analyzed by flow cytometry using fluorescence-activated cell sorting (Becton Dickinson FACScan Instrument using CellQuest software (BD Bioscience, San Jose, Calif.). Monolayer cells were trypsinized and washed with HBS before FACS analysis.
In parallel, the trypan blue dye exclusion test was used to assess cell death. In particular, different concentrations of 6MP and SA-6MP were applied to various cell cultures (Daudi and Hela cells, each at 30,000 cells/well) as described in Materials and Methods. The cells were stained with trypan blue to monitor the lethal effect of several concentrations of the tested conjugates as the percentage of dead cells. As shown in FIG. 3A-3D, cell death induced by 6-MP and SA-6MP was both concentration and cell type dependent. […] SA-6MP at concentrations higher than 150 μM reduced the residual viability to 75% (FIG. 3D).

[2] = system: human peripheral blood mononuclear cells (PBMCs); settings: after 4 days of treatment, read-out: IC50, T-cell mitogen-induced blastogenesis; cited from earlier work
B-CLL cells = assay: Apoptosis by Annexin-Cy5 FACS analysis; assay type: cell-based, human; settings: 16 h
Experimental: Apoptosis analysis in B-CLL cells treated with 6-MP derivatives at different concentration (16 h, at 37° C.) was done by FACS analysis. B-CLL cells were incubated with FITC-CD19 anti-human antibodies (Becton Dickinson, NJ, USA) for 20 minutes at 4° C. After washing off the unbound antibodies, samples were incubated with 5 μl Annexin-Cy5 (Pharmingen, San Diego, Calif., USA) in 10 mM HEPES pH 7.4 buffer containing 140 mM NaCl and 2.5 mM CaCl2, (HBS) for 10 minutes at room temperature. Subsequently, unbound Annexin was washed out and the samples were analyzed using FACScan analyzer (Becton-Dickinson, NJ, USA). The lymphocytes were counted and gated according to their size in forward and side scatters.
The slight decrease in viability of B-CLL human peripheral blood mononuclear cells (PBMC) upon incubation in the presence of 6-MP or SA-6MP was further investigated. B-CLL cells were treated with various concentrations of either 6-MP or SA-6MP and were subjected to flow cytometry analysis, as described in Materials and Methods, in order to monitor cells undergoing apoptosis.

B-CLL = assay: Anti-proliferative concentration IC50 (Table 2); assay type: cell-based; settings: Homo sapiens, 16 h, tested at 0-100 μM, read-out: Anti-proferative concentration - IC50 (mean ± SE)
Experimental: as §1
(§3) The results of viability and proliferation were expressed as mean values±SD (n=3-6). For each cell line, the results were analyzed using two-way analysis of variance (ANOVA) followed by Bonferroni's posttest for the factors of the drugs used and their various concentrations, considering p<0.05 as significant. IC50 values (mean±SEM) were obtained from the linear range of the viability curve versus drug concentration (XTT assay).
(§4) In particular, cell in suspension, namely, Daudi, HL-60, U937, Molt-4, Jurkat and B-CLL, were tested at prodrug concentration of 0-100 μM, and monolayer cells, namely, Hela HtTA-1, MDR HT-29 and N87, were tested at prodrug concentration of 0-200 μM. in both cases, cell viability was determined by trypan blue dye exclusion assay. Data are presented in Table 2 hereinbelow for 6MP derivatives-treated for 16 h.

Molt-4 = assay: Anti-proliferative concentration IC50 (Table 2); assay type: cell-based; settings: Homo sapiens; Molt-4, 16 h, tested at 0-100 μM; read-out: Anti-proferative concentration - IC50 (mean ± SE)
Experimental: as §1, §3, §4

Daudi cells [3] = assay: XTT cell proliferation assay; assay type: cell-based; settings: 16 h
Experimental: as §1, §2

N87 = assay: Anti-proliferative concentration IC50 (Table 2); assay type: cell-based, human; settings: Homo sapiens; N87, 16 h, tested at 0-200 μM; read-out: Anti-proferative concentration - IC50 (mean ± SE)
Experimental: as §1, §3, §4

HL-60 = assay: Anti-proliferative concentration IC50 (Table 2); assay type: cell-based, human; settings: Homo sapiens; HL-60, 16 h, tested at 0-100 μM; read-out: Anti-proferative concentration - IC50 (mean ± SE)
Experimental: as §1, §3, §4

IC50 (Molt-4): 50.5 ± 6.1 µM
SMILES: Sc1ncnc2nc[nH]c12 [6-MP, 6-Mercaptopurine, reference compound]
cell proliferation (N87 cells; N87, 0-100 μM): no significant loss of cell proliferation | proliferation (residual) (N87 cells; N87, 150 μM): ~80% | effect on cell viability (Daudi cells [1]; concentrations higher than 100 μM): no significant effect on cell viability | IC50 [2]: 150 ± 125 nM | percent of apoptotic cells (B-CLL cells; 0-150 μM): no significant increase in the percent of apoptotic cells | IC50 (B-CLL): > 900 µM | cell proliferation (Daudi cells [3]; 0-100 μM): no significant loss of cell proliferation

IC50 (Molt-4): 8.9 ± 1.2 µM | IC50 (HL-60): 42 ± 3.8 µM
SMILES: C=CCSSc1ncnc2nc[nH]c12 [SA-6MP, S-allylthio-6-mercaptopurine]
viability at 50 µM (N87 cells; Homo sapiens, N87, 50 μM, read-out: residual proliferation / viability): 50 to 60% | viability at 50 µM (Daudi cells [1]; Homo sapiens, 50 μM, read-out: residual viability): ~20% | percent of apoptotic cells (B-CLL cells; 50 μM): 38% | percent of apoptotic cells (B-CLL cells; 100 μM): 95% | IC50 (B-CLL): 129 ± 14.2 µM | residual proliferation (Daudi cells [3]; 50 μM): 15-30% | IC50 (N87): 70.5 ± 8.5 µM
